How the values were obtained:
HeLa-MaTu-ADR = assay: Proliferation assay (crystal violet), HeLa-MaTu-ADR; assay type: cell-based; details: 96 h, 4 days, read-out: Inhibition of proliferation IC50 HeLa-MaTu-ADR
Protocol: (§1) Cultivated tumor cells (cells were ordered from ATCC, except HeLa-MaTu and HeLa-MaTu-ADR, which were ordered from EPO-GmbH, Berlin) were plated at a density of 1000 to 5000 cells/well, depending on the growth rate of the respective cell line, in a 96-well multititer plate in 200 μL of their respective growth medium supplemented 10% fetal calf serum. After 24 hours, the cells of one plate (zero-point plate) were stained with crystal violet (see below), while the medium of the other plates was replaced by fresh culture medium (200 μl), to which the test substances were added in various concentrations (0 μM, as well as in the range of 0.001-10 μM; the final concentration of the solvent dimethyl sulfoxide was 0.5%). The cells were incubated for 4 days in the presence of test substances. Cell proliferation was determined by staining the cells with crystal violet: the cells were fixed by adding 20 μl/measuring point of an 11% glutaric aldehyde solution for 15 minutes at room temperature. After three washing cycles of the fixed cells with water, the plates were dried at room temperature. The cells were stained by adding 100 μl/measuring point of a 0.1% crystal violet solution (pH 3.0). After three washing cycles of the stained cells with water, the plates were dried at room temperature. The dye was dissolved by adding 100 μl/measuring point of a 10% acetic acid solution. Absorption was determined by photometry at a wavelength of 595 nm. The change of cell number, in percent, was calculated by normalization of the measured values to the absorption values of the zero-point plate (=0%) and the absorption of the untreated (0 μm) cells (=100%). The IC50 values were determined by means of a 4 parameter fit.

[1] = target: 456 kinases (of these 395 non-mutant kinases) (Homo sapiens, UniProt O15197); assay: Kinase Profiling (KINOMEscan); assay type: binding; details: EPHB6; 10 μM
[2] = target: 456 kinases (of these 395 non-mutant kinases) (Homo sapiens, UniProt Q13233); assay: Kinase Profiling (KINOMEscan); assay type: binding; details: MAP3K1; 10 μM
Chain of 456 kinases (of these 395 non-mutant kinases) (Homo sapiens, UniProt Q13233) (Q13233 2-1512 limits assumed, change not shown): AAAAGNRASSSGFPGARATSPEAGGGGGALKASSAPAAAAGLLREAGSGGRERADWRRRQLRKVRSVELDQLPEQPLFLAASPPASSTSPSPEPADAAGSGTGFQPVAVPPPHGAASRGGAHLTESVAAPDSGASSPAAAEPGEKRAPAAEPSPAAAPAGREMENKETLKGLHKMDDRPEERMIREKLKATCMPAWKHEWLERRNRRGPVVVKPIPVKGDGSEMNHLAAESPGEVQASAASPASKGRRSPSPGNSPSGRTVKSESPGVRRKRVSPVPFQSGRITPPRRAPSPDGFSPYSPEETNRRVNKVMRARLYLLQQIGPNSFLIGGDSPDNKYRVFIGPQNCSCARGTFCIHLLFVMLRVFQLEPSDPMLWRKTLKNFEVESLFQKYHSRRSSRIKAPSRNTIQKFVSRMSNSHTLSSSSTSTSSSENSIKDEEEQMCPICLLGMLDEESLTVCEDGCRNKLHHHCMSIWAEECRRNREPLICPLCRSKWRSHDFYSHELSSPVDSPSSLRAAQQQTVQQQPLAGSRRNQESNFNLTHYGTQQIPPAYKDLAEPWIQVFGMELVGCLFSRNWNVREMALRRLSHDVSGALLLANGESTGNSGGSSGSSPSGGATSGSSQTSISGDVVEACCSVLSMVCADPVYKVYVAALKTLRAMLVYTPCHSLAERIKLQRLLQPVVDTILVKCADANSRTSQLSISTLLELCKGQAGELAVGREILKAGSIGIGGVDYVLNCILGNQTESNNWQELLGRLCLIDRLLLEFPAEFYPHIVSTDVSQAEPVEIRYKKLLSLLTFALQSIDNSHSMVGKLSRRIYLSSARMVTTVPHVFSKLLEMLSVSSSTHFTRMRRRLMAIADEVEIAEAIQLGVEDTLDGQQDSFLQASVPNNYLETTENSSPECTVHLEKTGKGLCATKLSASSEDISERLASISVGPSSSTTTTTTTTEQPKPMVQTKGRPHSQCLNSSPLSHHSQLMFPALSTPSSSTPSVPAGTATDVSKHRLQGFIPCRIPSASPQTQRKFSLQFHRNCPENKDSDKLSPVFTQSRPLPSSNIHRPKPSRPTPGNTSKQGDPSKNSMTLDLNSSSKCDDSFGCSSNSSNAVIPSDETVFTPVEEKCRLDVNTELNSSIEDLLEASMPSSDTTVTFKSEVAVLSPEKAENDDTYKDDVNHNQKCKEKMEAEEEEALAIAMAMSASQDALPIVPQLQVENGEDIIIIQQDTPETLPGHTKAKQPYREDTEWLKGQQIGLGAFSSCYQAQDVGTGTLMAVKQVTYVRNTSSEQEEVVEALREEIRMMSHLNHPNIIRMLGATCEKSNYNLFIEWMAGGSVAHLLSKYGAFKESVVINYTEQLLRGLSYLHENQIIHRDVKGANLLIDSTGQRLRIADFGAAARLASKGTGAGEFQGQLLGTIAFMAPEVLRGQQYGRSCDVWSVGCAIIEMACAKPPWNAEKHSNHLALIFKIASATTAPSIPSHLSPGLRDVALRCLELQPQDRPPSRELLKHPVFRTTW

[3] = target: 456 kinases (of these 395 non-mutant kinases) (Homo sapiens, UniProt Q14004); assay: Kinase Profiling (KINOMEscan); assay type: binding; details: CDC2L5; 10 μM
[4] = target: 456 kinases (of these 395 non-mutant kinases) (Homo sapiens, UniProt P27361); assay: Kinase Profiling (KINOMEscan); assay type: binding; details: ERK1; 10 μM
[5] = target: 456 kinases (of these 395 non-mutant kinases) (Homo sapiens, UniProt P06213); assay: Kinase Profiling (KINOMEscan); assay type: binding; details: INSR; 10 μM
[6] = target: 456 kinases (of these 395 non-mutant kinases) (Homo sapiens, UniProt Q15303); assay: Kinase Profiling (KINOMEscan); assay type: binding; details: ERBB4; 10 μM
Chain of 456 kinases (of these 395 non-mutant kinases) (Homo sapiens, UniProt Q15303) (Q15303 26-1308 limits assumed, change not shown): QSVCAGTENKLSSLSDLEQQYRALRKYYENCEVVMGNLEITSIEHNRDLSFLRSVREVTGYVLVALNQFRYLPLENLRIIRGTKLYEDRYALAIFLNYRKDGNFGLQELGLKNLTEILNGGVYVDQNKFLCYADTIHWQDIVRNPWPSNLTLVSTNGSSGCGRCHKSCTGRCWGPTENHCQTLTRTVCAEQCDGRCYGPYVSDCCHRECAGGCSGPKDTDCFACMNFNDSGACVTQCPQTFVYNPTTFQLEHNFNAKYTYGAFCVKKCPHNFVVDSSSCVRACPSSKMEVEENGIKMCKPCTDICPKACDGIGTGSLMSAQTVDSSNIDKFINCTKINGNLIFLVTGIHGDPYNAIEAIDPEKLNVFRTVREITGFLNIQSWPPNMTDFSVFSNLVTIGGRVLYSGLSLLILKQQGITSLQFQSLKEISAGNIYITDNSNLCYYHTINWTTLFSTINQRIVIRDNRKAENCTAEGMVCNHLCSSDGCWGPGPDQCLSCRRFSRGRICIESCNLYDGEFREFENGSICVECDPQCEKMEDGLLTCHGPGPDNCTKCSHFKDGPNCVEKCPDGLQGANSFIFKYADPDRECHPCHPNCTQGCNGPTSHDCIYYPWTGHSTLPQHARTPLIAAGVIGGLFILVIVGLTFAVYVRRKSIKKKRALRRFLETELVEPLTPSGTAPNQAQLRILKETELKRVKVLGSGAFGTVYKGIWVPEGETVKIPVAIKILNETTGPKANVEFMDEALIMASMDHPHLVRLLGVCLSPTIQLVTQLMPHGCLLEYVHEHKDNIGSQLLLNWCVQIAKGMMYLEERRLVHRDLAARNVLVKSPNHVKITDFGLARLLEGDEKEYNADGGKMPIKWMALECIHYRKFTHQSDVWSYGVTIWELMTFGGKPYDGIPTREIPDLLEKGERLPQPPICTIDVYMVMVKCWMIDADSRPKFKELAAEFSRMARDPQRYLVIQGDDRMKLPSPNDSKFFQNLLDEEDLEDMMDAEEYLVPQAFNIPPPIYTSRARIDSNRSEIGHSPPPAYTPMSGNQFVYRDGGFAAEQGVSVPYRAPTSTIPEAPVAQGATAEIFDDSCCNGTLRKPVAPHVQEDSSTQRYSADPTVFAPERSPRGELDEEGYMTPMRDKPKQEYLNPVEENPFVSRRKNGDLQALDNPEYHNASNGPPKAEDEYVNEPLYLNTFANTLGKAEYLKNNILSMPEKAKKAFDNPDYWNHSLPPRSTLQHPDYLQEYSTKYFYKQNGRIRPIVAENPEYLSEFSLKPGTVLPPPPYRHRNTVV

[7] = target: 456 kinases (of these 395 non-mutant kinases) (Homo sapiens, UniProt Q99755); assay: Kinase Profiling (KINOMEscan); assay type: binding; details: PIP5K1A; 10 μM
[8] = target: 456 kinases (of these 395 non-mutant kinases) (Homo sapiens, UniProt Q2M2I8); assay: Kinase Profiling (KINOMEscan); assay type: binding; details: AAK1; 10 μM
[9] = target: 456 kinases (of these 395 non-mutant kinases) (Homo sapiens, UniProt P15056); assay: Kinase Profiling (KINOMEscan); assay type: binding; details: BRAF; 10 μM
Chain of 456 kinases (of these 395 non-mutant kinases) (Homo sapiens, UniProt P15056) (P15056 2-766 limits assumed, change not shown): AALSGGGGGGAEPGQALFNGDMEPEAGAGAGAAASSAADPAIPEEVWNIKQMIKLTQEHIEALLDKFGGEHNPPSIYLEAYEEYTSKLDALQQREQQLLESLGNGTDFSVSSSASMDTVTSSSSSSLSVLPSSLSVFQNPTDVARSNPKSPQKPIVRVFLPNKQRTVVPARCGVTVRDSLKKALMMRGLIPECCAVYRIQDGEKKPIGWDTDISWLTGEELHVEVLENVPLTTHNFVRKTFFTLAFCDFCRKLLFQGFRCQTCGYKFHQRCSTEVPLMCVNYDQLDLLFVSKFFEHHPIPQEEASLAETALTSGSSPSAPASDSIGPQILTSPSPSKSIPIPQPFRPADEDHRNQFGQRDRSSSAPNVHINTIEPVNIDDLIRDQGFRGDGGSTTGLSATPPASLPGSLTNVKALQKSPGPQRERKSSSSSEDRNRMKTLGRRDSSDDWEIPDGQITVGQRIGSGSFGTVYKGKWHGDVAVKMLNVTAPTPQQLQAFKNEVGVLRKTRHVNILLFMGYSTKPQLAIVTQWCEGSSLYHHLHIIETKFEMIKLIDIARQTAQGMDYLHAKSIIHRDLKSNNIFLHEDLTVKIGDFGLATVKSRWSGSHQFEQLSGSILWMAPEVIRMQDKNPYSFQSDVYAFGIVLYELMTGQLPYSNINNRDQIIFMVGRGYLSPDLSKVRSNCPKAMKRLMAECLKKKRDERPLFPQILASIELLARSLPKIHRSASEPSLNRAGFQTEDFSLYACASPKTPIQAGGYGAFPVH

[10] = target: 456 kinases (of these 395 non-mutant kinases) (Homo sapiens, UniProt O75460); assay: Kinase Profiling (KINOMEscan); assay type: binding; details: ERN1; 10 μM
[11] = target: 456 kinases (of these 395 non-mutant kinases) (Homo sapiens, UniProt P27037); assay: Kinase Profiling (KINOMEscan); assay type: binding; details: ACVR2A; 10 μM
Chain of 456 kinases (of these 395 non-mutant kinases) (Homo sapiens, UniProt P27037) (P27037 20-513 limits assumed, change not shown): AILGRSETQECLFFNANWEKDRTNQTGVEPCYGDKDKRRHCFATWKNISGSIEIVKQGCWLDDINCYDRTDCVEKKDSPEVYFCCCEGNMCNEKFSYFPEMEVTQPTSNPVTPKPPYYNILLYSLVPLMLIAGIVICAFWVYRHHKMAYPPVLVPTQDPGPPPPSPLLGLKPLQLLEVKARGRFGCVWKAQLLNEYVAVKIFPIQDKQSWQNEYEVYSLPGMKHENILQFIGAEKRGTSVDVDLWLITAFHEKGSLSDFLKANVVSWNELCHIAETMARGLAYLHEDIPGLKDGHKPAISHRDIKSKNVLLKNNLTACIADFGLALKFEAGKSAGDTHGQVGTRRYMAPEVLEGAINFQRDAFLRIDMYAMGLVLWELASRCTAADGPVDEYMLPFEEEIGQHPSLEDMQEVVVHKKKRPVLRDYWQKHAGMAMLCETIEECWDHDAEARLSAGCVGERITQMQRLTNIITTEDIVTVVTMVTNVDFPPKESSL

[12] = target: 456 kinases (of these 395 non-mutant kinases) (Homo sapiens, UniProt Q12851); assay: Kinase Profiling (KINOMEscan); assay type: binding; details: MAP4K2; 10 μM
[13] = target: 456 kinases (of these 395 non-mutant kinases) (Homo sapiens, UniProt Q9UQM7); assay: Kinase Profiling (KINOMEscan); assay type: binding; details: CAMK2A; 10 μM
[14] = target: 456 kinases (of these 395 non-mutant kinases) (Homo sapiens, UniProt Q9H2X6); assay: Kinase Profiling (KINOMEscan); assay type: binding; details: HIPK2; 10 μM
[15] = target: 456 kinases (of these 395 non-mutant kinases) (Homo sapiens, UniProt P08631); assay: Kinase Profiling (KINOMEscan); assay type: binding; details: HCK; 10 μM
[16] = target: 456 kinases (of these 395 non-mutant kinases) (Homo sapiens, UniProt Q15831); assay: Kinase Profiling (KINOMEscan); assay type: binding; details: LKB1; 10 μM
[17] = target: 456 kinases (of these 395 non-mutant kinases) (Homo sapiens, UniProt Q13882); assay: Kinase Profiling (KINOMEscan); assay type: binding; details: BRK; 10 μM
[18] = target: 456 kinases (of these 395 non-mutant kinases) (Homo sapiens, UniProt Q8IW41); assay: Kinase Profiling (KINOMEscan); assay type: binding; details: MAPKAPK5; 10 μM
[19] = target: 456 kinases (of these 395 non-mutant kinases) (Homo sapiens, UniProt P29320); assay: Kinase Profiling (KINOMEscan); assay type: binding; details: EPHA3; 10 μM
Chain of 456 kinases (of these 395 non-mutant kinases) (Homo sapiens, UniProt P29320) (P29320 21-983 limits assumed, change not shown): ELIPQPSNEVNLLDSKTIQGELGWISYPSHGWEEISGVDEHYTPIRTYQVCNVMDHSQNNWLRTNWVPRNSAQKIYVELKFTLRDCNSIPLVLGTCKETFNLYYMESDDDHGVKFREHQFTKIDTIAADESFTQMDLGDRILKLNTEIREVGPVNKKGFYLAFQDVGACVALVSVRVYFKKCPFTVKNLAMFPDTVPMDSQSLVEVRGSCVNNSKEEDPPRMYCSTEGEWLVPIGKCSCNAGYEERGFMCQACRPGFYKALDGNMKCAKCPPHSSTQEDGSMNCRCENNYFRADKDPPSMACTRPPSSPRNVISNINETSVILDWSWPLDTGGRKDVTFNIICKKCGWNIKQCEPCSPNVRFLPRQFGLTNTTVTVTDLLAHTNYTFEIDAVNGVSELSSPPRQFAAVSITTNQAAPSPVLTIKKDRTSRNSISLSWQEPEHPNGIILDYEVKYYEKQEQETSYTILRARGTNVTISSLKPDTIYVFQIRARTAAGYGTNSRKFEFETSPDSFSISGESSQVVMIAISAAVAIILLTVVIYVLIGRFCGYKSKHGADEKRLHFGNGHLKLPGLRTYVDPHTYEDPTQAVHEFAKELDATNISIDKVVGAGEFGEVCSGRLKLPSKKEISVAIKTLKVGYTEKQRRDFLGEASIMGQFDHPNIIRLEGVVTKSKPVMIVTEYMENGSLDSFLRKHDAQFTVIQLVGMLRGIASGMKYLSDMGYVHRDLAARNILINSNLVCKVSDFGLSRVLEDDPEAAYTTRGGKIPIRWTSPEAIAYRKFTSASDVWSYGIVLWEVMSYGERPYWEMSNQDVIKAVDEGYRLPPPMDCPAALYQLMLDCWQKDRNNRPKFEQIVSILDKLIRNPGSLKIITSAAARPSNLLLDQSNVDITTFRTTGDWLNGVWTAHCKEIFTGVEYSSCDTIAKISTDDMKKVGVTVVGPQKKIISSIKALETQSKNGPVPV

[20] = target: 456 kinases (of these 395 non-mutant kinases) (Homo sapiens, UniProt Q8NFD2); assay: Kinase Profiling (KINOMEscan); assay type: binding; details: ANKK1; 10 μM
DU145 = assay: Proliferation assay (crystal violet), DU145; assay type: cell-based; details: Homo sapiens, DU-145, 96 h; DU145, 4 days; read-out: Inhibition of proliferation IC50 DU145
Protocol: as §1

B16F10 = assay: Proliferation assay (crystal violet), B16F10; assay type: cell-based; details: Mus musculus, B16-F10, 96 h; B16F10, 4 days; read-out: Inhibition of proliferation IC50 B16F10
Protocol: as §1

Caco2 = assay: Proliferation assay (crystal violet), Caco2; assay type: cell-based; details: Homo sapiens, Caco-2, 96 h; Caco2, 4 days; read-out: Inhibition of proliferation IC50 Caco2
Protocol: as §1

NCI-H460 = assay: Proliferation assay (crystal violet), NCI-H460; assay type: cell-based; details: Homo sapiens, 96 h; NCI-H460, 4 days; read-out: Inhibition of proliferation IC50 NCI-H460
Protocol: as §1

CCc1ccccc1NC(=O)c1c(C)nsc1Nc1cnc2cc(F)ccc2n1 [Example 20, N-(2-Ethylphenyl)-5-[(6-fluoroquinoxalin-2-yl)amino]-3-methyl-1,2-thiazole-4-carboxamide]
IC50 (HeLa-MaTu-ADR): 500 nM
% Ctrl @ 10 μM [1]: 92 % Ctrl
% Ctrl @ 10 μM [2]: 84 % Ctrl
% Ctrl @ 10 μM [3]: 100 % Ctrl
% Ctrl @ 10 μM [4]: 100 % Ctrl
% Ctrl @ 10 μM [5]: 98 % Ctrl
% Ctrl @ 10 μM [6]: 100 % Ctrl
% Ctrl @ 10 μM [7]: 100 % Ctrl
% Ctrl @ 10 μM [8]: 68 % Ctrl
% Ctrl @ 10 μM [9]: 82 % Ctrl
% Ctrl @ 10 μM [10]: 100 % Ctrl
% Ctrl @ 10 μM [11]: 94 % Ctrl
% Ctrl @ 10 μM [12]: 99 % Ctrl
% Ctrl @ 10 μM [13]: 88 % Ctrl
% Ctrl @ 10 μM [14]: 100 % Ctrl
% Ctrl @ 10 μM [15]: 59 % Ctrl
% Ctrl @ 10 μM [16]: 100 % Ctrl
% Ctrl @ 10 μM [17]: 55 % Ctrl
% Ctrl @ 10 μM [18]: 100 % Ctrl
% Ctrl @ 10 μM [19]: 95 % Ctrl
% Ctrl @ 10 μM [20]: 100 % Ctrl
IC50 (DU145): 600 nM
IC50 (B16F10): 530 nM
IC50 (Caco2): 550 nM
IC50 (NCI-H460): 440 nM

Source: patent US9682995B2, “Amino-substituted isothiazoles” (BAYER PHARMA AKTIENGESELLSCHAFT, priority 2013, dated 2017)
